One series concerns MC65 cells. The note with it: MTT.
A further series is described as follows: Peroxyl. Particulars: compound 1 mM, BMPO 10 mM.
Series [1] in a line: Hydroxyl radical scavenging, BMPO spin trap EPR. Particulars: compound 1 mM, BMPO 10 mM.
For series [2], the target named is T1, Acetylcholinesterase from bovine erythrocytes (Bos taurus, UniProt P23795).
T1 sequence (P23795 31-614 isoform P23795-2 limits assumed): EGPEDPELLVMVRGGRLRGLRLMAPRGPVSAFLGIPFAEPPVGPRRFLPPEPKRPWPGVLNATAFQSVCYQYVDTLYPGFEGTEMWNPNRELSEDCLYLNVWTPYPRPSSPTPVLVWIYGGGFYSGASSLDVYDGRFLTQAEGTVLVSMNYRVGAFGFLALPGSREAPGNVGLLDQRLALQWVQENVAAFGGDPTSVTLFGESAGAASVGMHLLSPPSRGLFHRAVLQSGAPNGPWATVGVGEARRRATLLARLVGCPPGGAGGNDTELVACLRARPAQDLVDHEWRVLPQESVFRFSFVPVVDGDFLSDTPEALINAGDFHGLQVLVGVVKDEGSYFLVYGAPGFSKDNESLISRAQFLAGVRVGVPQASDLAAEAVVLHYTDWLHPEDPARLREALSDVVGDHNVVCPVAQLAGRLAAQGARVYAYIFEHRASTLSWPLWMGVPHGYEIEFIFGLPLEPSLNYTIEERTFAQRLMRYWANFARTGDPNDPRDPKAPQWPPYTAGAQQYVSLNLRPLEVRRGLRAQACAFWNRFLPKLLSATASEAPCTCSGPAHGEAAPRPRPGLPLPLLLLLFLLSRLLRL
In kind it is biochemical.

Series [3] can be described thus: ROS scavenging activity, radical type not specified, BMPO spin trap EPR. The note with it: compound 1 mM, BMPO 10 mM.

“Also recorded” adds a separate entry of the source. Read-outs that look alike come from different tables or passages of the source.

Consider `Cl.Nc1c2c(nc3ccccc13)CCCC2` [1/HCl, reference compound], for which the “protection against Aβ-induced cytotoxicity (in words)” value (shortened to “protection”) with MC65 cells is given as “do not exhibit any protection”. In addition, in “Peroxyl”, the “peroxyl / superoxide radical scavenging activity (in words)” value is reported as “limited”. Further, in series [1], the “hydroxyl radical scavenging activity (in words)” value is recorded as “limited”.

As to `C#CCN1CCN(c2c3c(nc4ccccc24)CCCC3)CC1` [compound 10, 9-[4-(prop-2-yn-1-yl)piperazin-1-yl]-1,2,3,4-tetrahydroacridine], the “protection” value with MC65 cells is on record as “do not provide any significant level of cell protection”. Further, the “AChEI activity (in words)” value in series [2] is given as “less AChEI activity than compound 1b”. Besides, the “peroxyl / superoxide radical scavenging activity (in words)” value in the series “Peroxyl” is on record as “limited; also recorded: lack peroxyl radical scavenging activity”. For the same compound, the “hydroxyl radical scavenging activity (in words)” value in series [1] is recorded as “limited”.

As to `CC1(C)Cc2nc3ccccc3c(N)c2C(C)(C)N1[O]` [17b, 10-amino-1,1,3,3-tetramethyl-3,4-dihydrobenzo[b][1,6]naphthyridin-2(1H)-yloxyl Radical], the “protection” value in the series on MC65 cells is on record as “notable protective activity”. Further, the “peroxyl / superoxide radical scavenging activity (in words)” value in “Peroxyl” is “excellent”. The “hydroxyl radical scavenging activity (in words)” value in series [1] is on record as “superior”.

On to `CC1(C)Cc2nc3ccccc3c(N)c2C(C)(C)N1` [16b, 1,1,3,3-tetramethyl-1,2,3,4-tetrahydrobenzo[b][1,6]naphthyridin-10-amine], for which the “protection” value in the series with MC65 cells is given as “notable protective activity; also recorded: lower protective activity”. In addition, the “AChEI activity (in words)” value in series [2] is “inactive”. Also, the “peroxyl / superoxide radical scavenging activity (in words)” value in the series “Peroxyl” is “lack peroxyl radical scavenging activity”.

Regarding `CC1(C)C=C(CNc2c3c(nc4ccccc24)CCCC3)CC(C)(C)N1[O]` [compound 5, 2,2,6,6-Tetramethyl-4-[(1,2,3,4-tetrahydroacridin-9-yl)aminomethyl]-1,2,3,6-tetrahydropyridin-1-yloxyl Radical], in the series on MC65 cells, the “protection” value is on record as “protection against Aβ-induced cytotoxicity”. Further, the “AChEI activity (in words)” value in series [2] is recorded as “less AChEI activity than compound 1b”. Also, the “peroxyl / superoxide radical scavenging activity (in words)” value in “Peroxyl” is “excellent”. The “ROS scavenging activity (in words)” value in series [3] is listed as “remarkable ROS scavenging activity”.

Consider `COc1ccc(CN2CCN(c3c4c(nc5ccccc35)CCCC4)CC2)c(OC)c1OC` [compound 13, 9-[4-(2,3,4-trimethoxybenzyl)piperazin-1-yl]-1,2,3,4-tetrahydroacridine], for which the “protection” value in the series with MC65 cells is “notable protective activity”. In addition, the “peroxyl / superoxide radical scavenging activity (in words)” value in the series “Peroxyl” is on record as “lack peroxyl radical scavenging activity”. The “ROS scavenging activity (in words)” value in series [3] was “appreciable scavenging activity; also recorded: notable antioxidant activity”.

In the case of `CN1C(C)(C)Cc2nc3ccccc3c(N)c2C1(C)C` [24b, 1,1,2,3,3-pentamethyl-1,2,3,4-tetrahydrobenzo[b][1,6]naphthyridin-10-amine], the “protection” value in the series with MC65 cells is reported as “notable protective activity”. The “AChEI activity (in words)” value in series [2] is recorded as “limited AChEI activity”. Moreover, the “peroxyl / superoxide radical scavenging activity (in words)” value in “Peroxyl” was “lack peroxyl radical scavenging activity”.

In the case of `CN1CCc2nc3ccccc3c(N)c2C1` [22b, 2-methyl-1,2,3,4-tetrahydrobenzo[b][1,6]naphthyridin-10-amine], in the series with MC65 cells, the “protection” value is listed as “notable protective activity”. In addition, the “peroxyl / superoxide radical scavenging activity (in words)” value in “Peroxyl” was “lack peroxyl radical scavenging activity”.

For the compound `CC1(C)C=C(CN2CCN(c3c4c(nc5ccccc35)CCCC4)CC2)C(C)(C)N1[O]` [9b, 2,2,5,5-Tetramethyl-3-[4-(1,2,3,4-tetrahydroacridin-9-yl)piperazin-1-ylmethyl]-2,5-dihydro-1H-pyrrol-1-yloxyl Radical], the results for the “protection” value in the series on MC65 cells and in the series on MC65 cells (listed as 9) were “protection against Aβ-induced cytotoxicity” and “remarkable cell protection”, respectively. Moreover, the “AChEI activity (in words)” value in series [2] is “less AChEI activity than compound 1b”. The “peroxyl / superoxide radical scavenging activity (in words)” value in the series “Peroxyl” is on record as “excellent”. For the same compound, the “ROS scavenging activity (in words)” value in series [3] was “remarkable ROS scavenging activity”.

`CC1(C)NC(C)(C)c2c1nc1ccccc1c2N` [19b, 1,1,3,3-tetramethyl-2,3-dihydro-1H-pyrrolo[3,4-b]quinolin-9-amine]: in the series on MC65 cells, the “protection” value is “notable protective activity; also recorded: lower protective activity”.

With `CC1(C)C=C(CNc2c3c(nc4ccccc24)CCCC3)C(C)(C)N1[O]` [4b, 2,2,5,5-Tetramethyl-3-[(1,2,3,4-tetrahydroacridin-9-yl)aminomethyl]-2,5-dihydro-1H-pyrrol-1-yloxyl Radical], the “protection” value with MC65 cells is listed as “protection against Aβ-induced cytotoxicity”. The “AChEI activity (in words)” value in series [2] is “less AChEI activity than compound 1b”. Besides, in “Peroxyl”, the “peroxyl / superoxide radical scavenging activity (in words)” value is “excellent”. Besides, in series [3], the “ROS scavenging activity (in words)” value is “remarkable ROS scavenging activity”.

Turning to `CC1(C)c2nc3ccccc3c(N)c2C(C)(C)N1[O]` [20b, 9-amino-1,1,3,3-tetramethyl-1H-pyrrolo[3,4-b]quinolin-2(3H)-yloxyl Radical], in the series on MC65 cells, the “protection” value is given as “notable protective activity”. Further, the results for the “peroxyl / superoxide radical scavenging activity (in words)” value in “Peroxyl” and in the series “Peroxyl” (listed as 20) were “lack peroxyl radical scavenging activity” and “excellent”, respectively.

In the case of `c1ccc2c(N3CCNCC3)c3c(nc2c1)CCCC3` [compound 7, 9-(Piperazin-1-yl)-1,2,3,4-tetrahydroacridine], the “protection” value in the series on MC65 cells is on record as “do not provide any significant level of cell protection”. In “Peroxyl”, the “peroxyl / superoxide radical scavenging activity (in words)” value is recorded as “limited; also recorded: lack peroxyl radical scavenging activity”. The “hydroxyl radical scavenging activity (in words)” value in series [1] was “limited”.

As for `Nc1c2c(nc3ccccc13)CCCC2` [1b, 9-amino-1,2,3,4-tetrahydroacridine, reference compound], the “peroxyl / superoxide radical scavenging activity (in words)” value in the series “Peroxyl” was “limited; also recorded: lack peroxyl radical scavenging activity”. In addition, the “ROS scavenging activity (in words)” value in series [3] is on record as “no significant effect on the level of radical detected”. Besides, the “hydroxyl radical scavenging activity (in words)” value in series [1] was “limited”.

For the compound `CC1(C)CC(n2cc(CN3CCN(c4c5c(nc6ccccc46)CCCC5)CC3)nn2)CC(C)(C)N1[O]` [compound 12, 2,2,6,6-Tetramethyl-4-{4-[4-(1,2,3,4-tetrahydroacridin-9-yl)piperazin-1-ylmethyl]-1H-1,2,3-triazol-1-yl}piperidin-1-yloxyl Radical], in the series on MC65 cells, the “protection” value is “protection against Aβ-induced cytotoxicity; also recorded: remarkable cell protection”. Also, the “AChEI activity (in words)” value in series [2] is “less AChEI activity than compound 1b; also recorded: active; also recorded: most efficient AChE inhibitors”. For the same compound, the “peroxyl / superoxide radical scavenging activity (in words)” value in “Peroxyl” is listed as “excellent”. Further, in series [3], the “ROS scavenging activity (in words)” value is listed as “remarkable ROS scavenging activity; also recorded: most efficient”.

Values taken from publication PMC4065883 (European journal of medicinal chemistry, 2014).
